Source: ChEMBL document CHEMBL3885881, “DrugMatrix”

Species on record: Rattus norvegicus
Assay: DrugMatrix - Regimen: Daily Repeat
Assay type: toxicity, organism-based, Sprague-Dawley
Set-up: regimen Daily Repeat, gender Male, age 6-8 weeks
Conditions: in vivo, iv, vehicle 100 % SALINE; for ABSOLUTE MONOCYTE / ABSOLUTE SEGMENTED NEUTROPHIL / BASOPHIL / EOSINOPHIL / ERYTHROCYTE COUNT / HEMATOCRIT / HEMOGLOBIN / LEUKOCYTE COUNT / LYMPHOCYTE / MEAN CORPUSCULAR HEMOGLOBIN / MEAN CORPUSCULAR HEMOGLOBIN CONCENTRATION / MEAN CORPUSCULAR VOLUME / MONOCYTE / NEUTROPHIL / NUCLEATED RED BLOOD CELLS / PLATELET COUNT / ABSOLUTE BASOPHIL / ABSOLUTE EOSINOPHIL / ABSOLUTE LYMPHOCYTE: tissue Blood; for ALANINE AMINOTRANSFERASE / ALBUMIN / ALKALINE PHOSPHATASE / ASPARTATE AMINOTRANSFERASE / BLOOD UREA NITROGEN / CARBON DIOXIDE / CHLORIDE / CHOLESTEROL / CREATINE PHOSPHOKINASE / CREATININE / GLUCOSE / LACTATE DEHYDROGENASE / LIPASE / PHOSPHORUS / POTASSIUM / SODIUM / TOTAL BILIRUBIN / TOTAL PROTEIN / URIC ACID: tissue Plasma
[1] = 20 mg/kg, 120 h, dose level Low, time 5 day
[2] = 82 mg/kg, 72 h, dose level High, time 3 day
[3] = 82 mg/kg, 120 h, dose level High, time 5 day

NCC[C@H](O)C(=O)N[C@@H]1C[C@H](N)[C@@H](O[C@H]2O[C@H](CN)[C@@H](O)[C@H](O)[C@H]2O)[C@H](O)[C@H]1O[C@H]1O[C@H](CO)[C@@H](O)[C@H](N)[C@H]1O [AMIKACIN]
ABSOLUTE MONOCYTE [1]: 11 CELLS/uL
ABSOLUTE SEGMENTED NEUTROPHIL [1]: 480 CELLS/uL
BASOPHIL [1]: 0%
EOSINOPHIL [1]: 0%
ERYTHROCYTE COUNT [1]: 5.48 x10E6/uL
HEMATOCRIT [1]: 33%
HEMOGLOBIN [1]: 12.63 G/DL
LEUKOCYTE COUNT [1]: 3.67 x10E3/uL
LYMPHOCYTE [1]: 86.67%
MEAN CORPUSCULAR HEMOGLOBIN [1]: 23 pg
MEAN CORPUSCULAR HEMOGLOBIN CONCENTRATION [1]: 38.3 G/DL
MEAN CORPUSCULAR VOLUME [1]: 60.1 fL
MONOCYTE [1]: 0.33%
NEUTROPHIL [1]: 13%
NUCLEATED RED BLOOD CELLS [1]: 0 /100WBC
PLATELET COUNT [1]: 622.33 x10E3/uL
ALANINE AMINOTRANSFERASE [1]: 72.67 u/L
ALBUMIN [1]: 3.63 G/DL
ALKALINE PHOSPHATASE [1]: 187.33 u/L
ASPARTATE AMINOTRANSFERASE [1]: 329.33 u/L
BLOOD UREA NITROGEN [1]: 16 mg/dL
CARBON DIOXIDE [1]: 32.67 mmol/L
CHLORIDE [1]: 98.67 MEQ/L
CHOLESTEROL [1]: 81.33 mg/dL
CREATINE PHOSPHOKINASE [1]: 388 u/L
CREATININE [1]: 0.13 mg/dL
GLUCOSE [1]: 162.67 mg/dL
LACTATE DEHYDROGENASE [1]: 112 u/L
LIPASE [1]: 9.67 u/L
PHOSPHORUS [1]: 10.23 mg/dL
POTASSIUM [1]: 5.93 MEQ/L
SODIUM [1]: 142.37 MEQ/L
TOTAL BILIRUBIN [1]: 0.1 mg/dL
TOTAL PROTEIN [1]: 5.3 G/DL
URIC ACID [1]: 0.53 mg/dL
ABSOLUTE BASOPHIL [2]: 0 CELLS/uL
ABSOLUTE EOSINOPHIL [2]: 29 CELLS/uL
ABSOLUTE LYMPHOCYTE [2]: 10165.67 CELLS/uL
ABSOLUTE MONOCYTE [2]: 121.67 CELLS/uL
ABSOLUTE SEGMENTED NEUTROPHIL [2]: 950.33 CELLS/uL
BASOPHIL [2]: 0%
EOSINOPHIL [2]: 0.33%
ERYTHROCYTE COUNT [2]: 5.81 x10E6/uL
HEMATOCRIT [2]: 35.97%
HEMOGLOBIN [2]: 13.7 G/DL
LEUKOCYTE COUNT [2]: 11.27 x10E3/uL
LYMPHOCYTE [2]: 90%
MEAN CORPUSCULAR HEMOGLOBIN [2]: 23.6 pg
MEAN CORPUSCULAR HEMOGLOBIN CONCENTRATION [2]: 38.1 G/DL
MEAN CORPUSCULAR VOLUME [2]: 61.93 fL
MONOCYTE [2]: 1%
NEUTROPHIL [2]: 8.67%
NUCLEATED RED BLOOD CELLS [2]: 0.33 /100WBC
PLATELET COUNT [2]: 1125.33 x10E3/uL
ALANINE AMINOTRANSFERASE [2]: 50.67 u/L
ALBUMIN [2]: 4.17 G/DL
ALKALINE PHOSPHATASE [2]: 370.33 u/L
ASPARTATE AMINOTRANSFERASE [2]: 84 u/L
BLOOD UREA NITROGEN [2]: 14.33 mg/dL
CARBON DIOXIDE [2]: 35 mmol/L
CHLORIDE [2]: 98.67 MEQ/L
CHOLESTEROL [2]: 74.33 mg/dL
CREATINE PHOSPHOKINASE [2]: 385.33 u/L
CREATININE [2]: 0.18 mg/dL
GLUCOSE [2]: 178.33 mg/dL
LACTATE DEHYDROGENASE [2]: 142.67 u/L
LIPASE [2]: 9 u/L
PHOSPHORUS [2]: 11.27 mg/dL
POTASSIUM [2]: 6 MEQ/L
SODIUM [2]: 143.33 MEQ/L
TOTAL BILIRUBIN [2]: 0.2 mg/dL
TOTAL PROTEIN [2]: 5.97 G/DL
URIC ACID [2]: 0.7 mg/dL
ABSOLUTE BASOPHIL [3]: 0 CELLS/uL
ABSOLUTE EOSINOPHIL [3]: 0 CELLS/uL
ABSOLUTE LYMPHOCYTE [3]: 6237.33 CELLS/uL
ABSOLUTE MONOCYTE [3]: 19 CELLS/uL
ABSOLUTE SEGMENTED NEUTROPHIL [3]: 743.67 CELLS/uL
BASOPHIL [3]: 0%
EOSINOPHIL [3]: 0%
ERYTHROCYTE COUNT [3]: 5.27 x10E6/uL
HEMATOCRIT [3]: 33.87%
HEMOGLOBIN [3]: 13.13 G/DL
LEUKOCYTE COUNT [3]: 7 x10E3/uL
LYMPHOCYTE [3]: 89.33%
MEAN CORPUSCULAR HEMOGLOBIN [3]: 24.93 pg
MEAN CORPUSCULAR HEMOGLOBIN CONCENTRATION [3]: 38.8 G/DL
MEAN CORPUSCULAR VOLUME [3]: 64.2 fL
MONOCYTE [3]: 0.33%
NEUTROPHIL [3]: 10.33%
NUCLEATED RED BLOOD CELLS [3]: 0.33 /100WBC
PLATELET COUNT [3]: 1177.67 x10E3/uL
ALANINE AMINOTRANSFERASE [3]: 59.67 u/L
ALBUMIN [3]: 3.9 G/DL
ALKALINE PHOSPHATASE [3]: 382 u/L
ASPARTATE AMINOTRANSFERASE [3]: 82 u/L
BLOOD UREA NITROGEN [3]: 17.33 mg/dL
CARBON DIOXIDE [3]: 32.33 mmol/L
CHLORIDE [3]: 100 MEQ/L
CHOLESTEROL [3]: 63.67 mg/dL
CREATINE PHOSPHOKINASE [3]: 235.67 u/L
CREATININE [3]: 0.15 mg/dL
GLUCOSE [3]: 160.67 mg/dL
LACTATE DEHYDROGENASE [3]: 113.33 u/L
LIPASE [3]: 9.33 u/L
PHOSPHORUS [3]: 10.73 mg/dL
POTASSIUM [3]: 5.04 MEQ/L
SODIUM [3]: 143.97 MEQ/L
TOTAL BILIRUBIN [3]: 0.17 mg/dL
TOTAL PROTEIN [3]: 5.83 G/DL
URIC ACID [3]: 0.5 mg/dL
